# Source: publication PMC9785542, “Discovery of 1-Benzhydryl-Piperazine-Based HDAC Inhibitors with Anti-Breast Cancer Activity: Synthesis, Molecular Modeling, In Vitro and In Vivo Biological Evaluation” (Pharmaceutics, 2022)
# Test system: intersegmental blood vessels (ISVs) of Tg(fli1:EGFP) zebrafish embryos
# Assay: Anti-angiogenic activity in Tg(fli1:EGFP) zebrafish embryos
# Assay type: in vivo
# Procedure: The inhibitory activity of 8b on angiogenesis was examined using embryos of the transgenic zebrafish Tg(fli1:EGFP) line with GFP-labeled endothelial cells, as previously described. Briefly, embryos at the 6–8 hpf stage were exposed to three non-toxic concentrations and incubated at 28 °C by 48 hpf. At 48 hpf, the treated embryos were anesthetized with 0.02% tricaine, imaged under a fluorescence microscope (Olympus BX51, Applied Imaging Corp., San Jose, CA, USA), and analyzed for the development of intersegmental blood vessels (ISVs). The experiment was performed three times using ten embryos per concentration. ISV lengths were measured using ImageJ program, and expressed as mean value with standard deviation. Inhibitory effect of the applied treatment was determined in relation to the control (DMSO-treated) group, arbitrarily set to 100%.
structure (smiles),measurement,setting,value
"O=C(CCCCCCCN1CCN(C(c2ccccc2)c2ccccc2)CC1)NO [Compound 8b, 8-(4-(diphenylmethyl)-piperazin-1-yl)-N-hydroxyoctanamide]",embryos affected in terms of ISV growth (anti-angiogenic phenotype),"6.25 µM, 48 hpf",~ 60%
same,toxic response in embryos at anti-angiogenic effective doses,"8b 6.25-50 µM, Suten effective dose 1.56 µM",did not elicit any toxic response
same,ISV inhibition,"25 and 50 µM, 48 hpf",majority of ISVs were inhibited
